The subject of series [1] is MDR A. baumannii (FADDI-AB156). The series is described as follows: Antibiogram of MDR A. baumannii. It is filed as cell-based, Acinetobacter baumannii. The conditions noted are these: for Susceptibility: CLSI resistant breakpoints.
The subject of series [2] is MDR P. aeruginosa (FADDI-PA067). The series is described as follows: Antibiogram of MDR P. aeruginosa. Type of series: cell-based, Pseudomonas aeruginosa. The conditions noted are these: for Susceptibility: CLSI resistant breakpoints.
In a further series the test system is E. coli. Nature of the series: Minimum inhibitory concentration (MIC), broth microdilution. It is filed as cell-based. The conditions noted are these: Escherichia coli.
Series [3] concerns CMDR A. baumannii (FADDI-AB156). Nature of the series: Mouse peritonitis model. It is filed as in vivo, C57BL/6 mice. The conditions noted are these: 24 h infection.
Series [4] concerns P. aeruginosa (ATCC 47085). Nature of the series: Minimum bactericidal concentration (MBC). Type of series: cell-based, Pseudomonas aeruginosa. The conditions noted are these: MHB. The arrangement: unit not given here. The protocol:
(§1) A dilution series of each compound was made by diluting test compound stock in media to a desired range of concentrations and a final volume of 100 μL in each well of a 96-well plate. Bacterial cells (which gave an optical density reading of ˜0.7 at 650 nm for E. coli, K. pneumoniae, P. aeruginosa, and S. aureus, ˜0.5 at 650 nm for A. baumannii and ˜1.8 at 650 nm for S. mutans) were diluted to 2.5×10^6 cells/mL in media and 100 μL of the bacteria solution was added to each well. The 96-well plate was then incubated at 37° C. for 90 min. For each well, microbial solution was diluted with saline (0.9% NaCl solution) using an appropriate dilution factor and placed on an agar plate (identical to that used for bacteria culture). For E. coli, K. pneumoniae, A. baumannii, and S. aureus, the agar plates were incubated overnight at room temperature, and then at 37° C. with aeration for 2 h. For P. aeruginosa and S. mutans, the agar plates were incubated at 37° C., with the former being incubated overnight with aeration and the latter in an anaerobic chamber for 48 h. The number of colony-forming units (CFU) was counted and expressed as CFU/mL. Positive controls consisting of cells without any treatment were used. […] Data is expressed as mean±standard deviation (SD) of the biological replicates and analysed using student's t-test. […]

The next series relates to E. coli (ATCC 25922). The series is described as follows: Minimum bactericidal concentration (MBC). Type of series: cell-based, Escherichia coli. More on the design: unit not given here. The conditions noted are these: MHB.
Text: (§2) The number of colony-forming units (CFU) was counted and expressed as CFU/mL. Positive controls consisting of cells without any treatment were used.
as §2

Series [5] relates to K. pneumoniae (ATCC 13883). Nature of the series: Minimum bactericidal concentration (MBC). It is filed as cell-based, Klebsiella pneumoniae. The arrangement: unit not given here. The conditions noted are these: MHB. The protocol:
as §1

Series [6] relates to sheep red blood cells (RBCs). The series is described as follows: Hemolysis assay.
Procedure: Fresh sheep red blood cells (RBCs) were diluted 1 in 20 in PBS (pH 7.4), pelleted by centrifugation, and washed three times in PBS (1000 g, 10 min). The RBCs were counted using a cell counter (Coulter Particle Counter Z series, Beckman Coulter) and diluted to a final concentration of 2×10^7 cells/mL. 100 μL aliquots of the RBC solution were seeded into a V-bottomed 96-well plate containing 100 μL of test compound solution of varying concentrations (4-256 μg/mL) and incubated in a humidified atmosphere containing 5% CO2 at 37° C. for 2 h. Following incubation, the 96-well plate was centrifuged (1000 g, 10 min) and aliquots (100 μL) of supernatant were transferred to a flat-bottomed 96-well plate. Hemoglobin release upon lysis of the RBCs was monitored at 405 nm using a microplate reader (PerkinElmer 1420 Multilabel Counter VICTOR^3). Positive and negative controls for hemolysis were taken as RBC lysed with 0.5% Triton X-100 (1:1 v/v) and RBC suspension in PBS, respectively. The percentage of hemolysis was calculated using the following formula:
The percentage hemolysis was plotted against peptide polymer concentration and linear regression analysis was used to determine the hemolytic concentration needed to lyse 50% (HC50) of RBCs. Two independent runs of the assay were conducted and two replicates were used in each run for each compound and concentration.
Fresh sheep red blood cells (RBCs) were diluted 1 in 20 in PBS (pH 7.4), pelleted by centrifugation, and washed three times in PBS (1000 g, 10 min). The RBCs were counted using a cell counter (Coulter Particle Counter Z series, Beckman Coulter) and diluted to a final concentration of 2×10^7 cells/mL. 100 μL aliquots of the RBC solution were seeded into a V-bottomed 96-well plate containing 100 μL of polypeptide solution of varying concentrations (4-256 μg/mL) and incubated in a humidified atmosphere containing 5% CO2 at 37° C. for 2 h. Following incubation, the 96-well plate was centrifuged (1000 g, 10 min) and aliquots (100 μL) of supernatant were transferred to a flat-bottomed 96-well plate. Hemoglobin release upon lysis of the RBCs was monitored at 405 nm using a microplate reader (PerkinElmer 1420 Multilabel Counter VICTOR3). Positive and negative controls for hemolysis were taken as RBC lysed with 0.5% Triton X-100 (1:1 v/v) and RBC suspension in PBS, respectively. The percentage of hemolysis was calculated using the following formula:
The percentage hemolysis was plotted against polypeptide concentration and linear regression analysis was used to determine the hemolytic concentration needed to lyse 50% (HC50) of RBCs. Two independent runs of the assay were conducted and two replicates were used in each run for each polypeptide and concentration.
In series [7] the test system is A. baumannii (ATCC 19606). The series is described as follows: Minimum bactericidal concentration (MBC). It is filed as cell-based, Acinetobacter baumannii. More on the design: unit not given here. The conditions noted are these: MHB. The protocol:
as §1

The mark [8] stands for this setting: concentration giving 50% hemolysis, 2 h.

In brackets after ≈: the same amount, converted by molar mass. Several values for one entry are separate records, joined by “and”; a condition that tells them apart may be missing. Identical values can stand only once. Like-named read-outs stand apart in the source and are kept apart here. Where no end group is shown, it is not given here.

Usually MIC stands for the smallest concentration in the dilution series that meets the test's criterion for growth inhibition. The HC50 is the concentration that lyses half of the red blood cells.

For the compound `C[C@@H](O)[C@H]1C(=O)N2C(C(=O)O)=C(S[C@@H]3CN[C@H](C(=O)N(C)C)C3)[C@H](C)[C@H]12` [Meropenem], in series [1], the Susceptibility entry is listed as “Resistant”.

In the case of Gentamicin, the Susceptibility entry in [2] and in series [1] was “Resistant” in each case. Also, the MIC in [1] was not below 33.5 µM.

In turn, `C[C@H]1c2cccc(O)c2C(=O)C2=C(O)[C@]3(O)C(=O)C(C(N)=O)=C(O)[C@@H](N(C)C)[C@@H]3[C@@H](O)[C@@H]21` [doxycycline] yielded a minimum inhibitory concentration (MIC) in the series with E. coli of 0.5 µg/mL (≈ 1.13 µM).

With Trimethoprim/Sulfamethoxazole, in [1], the MIC is given as not below 1102.2 µM and the Susceptibility result is given as “Resistant”.

For `CCN1CCN(C(=O)N[C@@H](C(=O)N[C@@H]2C(=O)N3[C@@H]2SC(C)(C)[C@@H]3C(=O)O)c2ccccc2)C(=O)C1=O` [Piperacillin], in series [2], the Susceptibility result was “Resistant”.

With Amoxicillin/Clavulanic Acid, in series [1], the MIC is listed as not below 87.6 µM and the Susceptibility entry is listed as “Resistant”.

As for `COc1cc(Cc2cnc(N)nc2N)cc(OC)c1OC` [Trimethoprim], the Susceptibility result in [1] is “Resistant”.

With `CCn1cc(C(=O)O)c(=O)c2cc(F)c(N3CCNCC3)cc21` [Norfloxacin], in [1], the Susceptibility result is on record as “Resistant”.

For the compound `CC(C)(O/N=C(\C(=O)N[C@@H]1C(=O)N2C(C(=O)[O-])=C(C[n+]3ccccc3)CS[C@H]12)c1csc(N)n1)C(=O)O` [Ceftazidime], the Susceptibility result in series [2] and in series [1] was “Resistant” each time.

As for `NC[C@H]1O[C@H](O[C@H]2[C@H](O)[C@@H](O[C@H]3O[C@H](CO)[C@@H](O)[C@H](N)[C@H]3O)[C@H](N)C[C@@H]2N)[C@H](N)C[C@@H]1O` [Tobramycin], the Susceptibility result in [2] and in [1] was “Resistant” throughout. This compound yielded an MIC in series [1] (Acinetobacter baumannii) not below 34.2 µM.

Take `CCn1cc(C(=O)O)c(=O)c2ccc(C)nc21` [Nalidixic Acid]: the Susceptibility result in series [1] is “Resistant”.

On to `NCC[C@H](O)C(=O)N[C@@H]1C[C@H](N)[C@@H](O[C@H]2O[C@H](CN)[C@@H](O)[C@H](O)[C@H]2O)[C@H](O)[C@H]1O[C@H]1O[C@H](CO)[C@@H](O)[C@H](N)[C@H]1O` [Amikacin], for which, in [1], the Susceptibility entry is on record as “Resistant”.

For the compound `C[C@@H](O)[C@H]1C(=O)N2C(C(=O)O)=C(SCCN=CN)C[C@H]12` [Imipenem], in series [1] (Acinetobacter baumannii), the MIC is not below 214 µM. In addition, the survival in [3] is on record as 50%.

`CC1(C)S[C@@H]2[C@H](NC(=O)[C@H](N)c3ccccc3)C(=O)N2[C@H]1C(=O)O` [Ampicillin] gave an MIC in series [1] (Acinetobacter baumannii) not below 91.6 µM. Besides, the Susceptibility result in [1] is reported as “Resistant”.

Turning to `C[C@H]1[C@H](NC(=O)/C(=N\OC(C)(C)C(=O)O)c2csc(N)n2)C(=O)N1S(=O)(=O)O` [Aztreonam], in series [2], the Susceptibility result is recorded as “Resistant”.

As for `CO[C@@]1(NC(=O)Cc2cccs2)C(=O)N2C(C(=O)O)=C(COC(N)=O)CS[C@@H]21` [Cefoxitin], the Susceptibility result in series [1] is listed as “Resistant”.

`CO/N=C(\C(=O)N[C@@H]1C(=O)N2C(C(=O)[O-])=C(C[N+]3(C)CCCC3)CS[C@H]12)c1csc(N)n1` [Cefepime]: the Susceptibility entry in series [1] is on record as “Resistant”.

On to `CC1(C)S[C@@H]2[C@H](NC(=O)[C@H](C(=O)O)c3ccsc3)C(=O)N2[C@H]1C(=O)O` [Ticarcillin], for which, in [2], the Susceptibility result was “Resistant”.

Consider “Ovispirin: antimicrobial peptide NH2- KNLRRIIRKIIHIIKKYG-COOH (H-KNLRRIIRKIIHIIKKYG-OH; also: SNAPP conjugate)”, for which the MBC in [4] is listed as 95.49 ± 9.73; in the series with E. coli (ATCC 25922) it was 8.39 ± 0.44; in series [5] it was 11.49 ± 4.86; in series [7] it was 2.21 ± 0.88. Also, the HC50 in series [6] (setting [8]) was 61.8 µM; in series [6] (extrapolated from FIG. 59), 27 μg/mL and 61.8 μM.

As for `CO/N=C(\C(=O)N[C@@H]1C(=O)N2C(C(=O)O)=C(CSc3nc(=O)c(=O)[nH]n3C)CS[C@H]12)c1csc(N)n1` [Ceftriaxone], the Susceptibility result in series [1] is given as “Resistant”.

In the case of `Cc1nnc(SCC2=C(C(=O)O)N3C(=O)[C@@H](NC(=O)Cn4cnnn4)[C@H]3SC2)s1` [Cefazolin], the Susceptibility entry in [1] is “Resistant”.

In the case of Ticarcillin/Clavulanic Aid, in series [1], the MIC was not below 333.0 µM and the Susceptibility result is listed as “Resistant”.

On to Colistin Sulfate, for which, in series [2], the “Susceptibility, concentration in parentheses” value was more than 110.8 µM and the Susceptibility result is reported as “Resistant”. Moreover, in series [1], the MIC was 13.8 µM and the Susceptibility entry is recorded as “Resistant”.

“GIGKFLHSAKKFGKAFVGEIMNS-NH2 [Magainin II]”: the HC50 was 81.1 µM in series [6] (setting [8]); 33 μg/mL and 81.1 μM in [6] (extrapolated from FIG. 59).

For Piperacillin/Tazobactam, in [1], the MIC is not below 247.3 µM and the Susceptibility result was “Resistant”.
